Publication PMC5999544 (Bioorganic & medicinal chemistry letters, 2017)
Entries after “also recorded” stand apart in the source; their conditions may differ.

How the values were obtained:
ASK1 [1] = biological target: T1, ASK1 (Homo sapiens, UniProt Q99683); assay: ASK1 Alphascreen biochemical assay
T1 sequence (Q99683 1-1374): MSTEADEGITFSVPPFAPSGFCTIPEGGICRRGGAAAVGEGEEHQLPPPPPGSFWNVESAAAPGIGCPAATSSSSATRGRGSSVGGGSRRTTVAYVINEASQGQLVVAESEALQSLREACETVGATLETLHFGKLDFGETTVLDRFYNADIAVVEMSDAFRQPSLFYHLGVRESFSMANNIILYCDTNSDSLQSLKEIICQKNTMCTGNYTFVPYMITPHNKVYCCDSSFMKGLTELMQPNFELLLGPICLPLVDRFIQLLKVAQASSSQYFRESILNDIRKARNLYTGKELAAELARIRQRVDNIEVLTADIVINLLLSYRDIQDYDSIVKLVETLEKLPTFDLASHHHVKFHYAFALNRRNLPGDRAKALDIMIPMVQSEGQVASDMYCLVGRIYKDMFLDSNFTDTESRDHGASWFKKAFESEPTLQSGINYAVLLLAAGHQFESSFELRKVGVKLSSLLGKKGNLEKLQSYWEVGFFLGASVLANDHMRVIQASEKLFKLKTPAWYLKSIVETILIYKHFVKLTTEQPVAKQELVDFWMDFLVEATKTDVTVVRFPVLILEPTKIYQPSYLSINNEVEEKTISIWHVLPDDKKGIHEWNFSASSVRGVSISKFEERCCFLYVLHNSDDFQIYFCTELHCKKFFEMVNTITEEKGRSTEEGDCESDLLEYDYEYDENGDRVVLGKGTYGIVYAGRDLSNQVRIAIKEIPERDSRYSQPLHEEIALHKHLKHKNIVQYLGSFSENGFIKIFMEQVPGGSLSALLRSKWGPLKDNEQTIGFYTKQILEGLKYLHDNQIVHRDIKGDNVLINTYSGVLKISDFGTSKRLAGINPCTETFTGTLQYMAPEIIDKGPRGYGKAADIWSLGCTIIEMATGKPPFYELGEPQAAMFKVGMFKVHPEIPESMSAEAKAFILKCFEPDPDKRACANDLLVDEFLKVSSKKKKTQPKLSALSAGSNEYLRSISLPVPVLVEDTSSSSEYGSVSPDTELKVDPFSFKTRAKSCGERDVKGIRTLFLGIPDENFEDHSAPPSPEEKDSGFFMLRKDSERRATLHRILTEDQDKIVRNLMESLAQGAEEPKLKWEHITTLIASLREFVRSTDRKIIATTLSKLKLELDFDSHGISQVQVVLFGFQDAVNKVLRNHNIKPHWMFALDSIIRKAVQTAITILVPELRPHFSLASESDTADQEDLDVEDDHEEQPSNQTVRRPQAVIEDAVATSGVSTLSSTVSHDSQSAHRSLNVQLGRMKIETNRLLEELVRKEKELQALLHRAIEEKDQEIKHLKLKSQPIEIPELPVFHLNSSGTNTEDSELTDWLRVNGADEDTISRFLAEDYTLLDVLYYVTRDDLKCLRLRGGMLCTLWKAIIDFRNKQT

ASK1 [2] = biological target: T1, ASK1; assay: Enzyme kinetic study, Lineweaver-Burk plot at six ATP concentrations; assay type: biochemical; conditions: with or without compound
INS-1e cell line = assay: TNFα-induced phosphorylation of endogenous MKK6 at Ser207, immunoblot; assay type: cell-based; conditions: rat INS-1e cells
CYP2C9 = CYP2C9 (Homo sapiens, UniProt P11712); assay: Cytochrome P450 inhibition assay 2C9; assay type: in vitro ADME
Chain of CYP2C9 (P11712 whole entry): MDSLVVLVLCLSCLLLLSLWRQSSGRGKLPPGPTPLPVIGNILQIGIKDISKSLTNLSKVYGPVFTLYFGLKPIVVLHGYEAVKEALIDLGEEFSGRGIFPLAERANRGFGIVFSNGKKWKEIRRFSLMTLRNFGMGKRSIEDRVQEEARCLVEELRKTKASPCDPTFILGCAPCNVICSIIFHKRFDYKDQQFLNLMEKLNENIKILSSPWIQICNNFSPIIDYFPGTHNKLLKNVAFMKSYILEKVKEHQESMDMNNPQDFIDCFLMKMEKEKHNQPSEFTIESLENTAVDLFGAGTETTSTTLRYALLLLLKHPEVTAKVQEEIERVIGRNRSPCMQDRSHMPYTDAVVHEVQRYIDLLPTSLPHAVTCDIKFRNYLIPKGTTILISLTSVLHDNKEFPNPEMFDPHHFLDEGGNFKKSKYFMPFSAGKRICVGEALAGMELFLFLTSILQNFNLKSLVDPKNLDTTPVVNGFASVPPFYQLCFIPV

CYP3A4 = CYP3A4 (Homo sapiens, UniProt P08684); assay: Cytochrome P450 inhibition assay 3A4; assay type: in vitro ADME
Chain of CYP3A4 (P08684 whole entry): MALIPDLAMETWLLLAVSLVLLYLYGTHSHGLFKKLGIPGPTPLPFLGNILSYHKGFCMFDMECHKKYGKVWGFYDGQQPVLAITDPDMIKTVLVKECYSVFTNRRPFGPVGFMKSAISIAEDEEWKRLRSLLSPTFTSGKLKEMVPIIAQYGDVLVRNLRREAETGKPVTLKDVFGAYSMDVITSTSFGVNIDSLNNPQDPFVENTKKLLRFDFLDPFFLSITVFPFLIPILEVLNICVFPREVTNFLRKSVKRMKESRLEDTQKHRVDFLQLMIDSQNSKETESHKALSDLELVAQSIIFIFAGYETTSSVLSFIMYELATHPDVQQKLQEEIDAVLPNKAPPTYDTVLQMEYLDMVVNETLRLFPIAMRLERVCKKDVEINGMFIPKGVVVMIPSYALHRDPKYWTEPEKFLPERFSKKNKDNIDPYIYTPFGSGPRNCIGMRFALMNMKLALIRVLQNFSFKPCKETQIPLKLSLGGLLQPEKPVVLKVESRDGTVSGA

SMILES | ASK1 inhibitory activity (in words) (ASK1 [1]) | inhibition at 10 µM (CYP2C9) | inhibition at 10 µM (CYP3A4) | also measured
CC(C)(C)C(=O)N(c1ccccc1)c1cccc(Nc2ncc3cc(-c4cn[nH]c4)ccc3n2)c1 [Compound 28] | did not show improvement in ASK1 activity | – | – | –
Cn1cc(-c2ccc3nc(Nc4cccc(N(C(=O)C(C)(C)C)c5ccccc5)c4)ncc3c2)cn1 [Compound 29] | did not show improvement in ASK1 activity | – | – | –
CC(=O)Nc1cccc(Nc2ncc3ccccc3n2)c1 [Compound 12] | submicromolar inhibitory activities against ASK1 | < 20% | < 20% | mode of ASK1 inhibition (ASK1 [2]): ATP competitive; TNFα-induced MKK6 ser207 phosphorylation (INS-1e cell line): protects against TNFα-induced MKK6^ser207 phosphorylation; also recorded: reduction of p-MKK6^ser207; fold improvement in potency in comparison to quinazoline 9 (ASK1 [1]; 12 versus 9): > 10 fold
CC(=O)Nc1cccc(Nc2ncc3cc(-c4cn[nH]c4)ccc3n2)c1 [Compound 23] | submicromolar inhibitory activities against ASK1 | > 85% | > 85% | –
CN(C)c1cccc(Nc2nccc(NCCOc3ccccc3)n2)c1 [Compound 3] | – | – | – | fold less active as an ASK1 inhibitor compared to 1 (ASK1 [1]; 3 versus 1): approximately 250 fold
